Laboratory results taken from patent US20230233674A1 (priority 2022, published 2023).

How the values were obtained:
[1] = test system: Influenza A/California/04/2009 (H1N1); parameters: species or system mice; conditions: mouse, in vivo
[2] = cited from earlier work

## CCOC(=O)C1=C[C@@H](OC(CC)CC)[C@H](NC(C)=O)[C@@H](N)C1 [Oseltamivir]
[1]
  mean peak weight loss: −32%

## 2′-3″cyclic guanosine monophosphate adenosine monophosphate [cGAMP]
[2]
  in vivo half-life: ~35 min
